Laboratory results as given in ChEMBL document CHEMBL1201862, “PubChem BioAssay data set” (2004).
Calls of active or inactive are those of the source.

Tests used:
[1] = Luminescence Cell-Based Dose Confirmation HTS to Identify Inhibitors of 5'UTR Stem-Loop Driven Alpha-Synuclein mRNA Translation in H4 Neuroglioblastoma Cells. [Related pubchem assays: 1827 (Project Summary), 1813 (Primary HTS)]; assay type: functional
[2] = Luminescence Cell-Based Dose Response HTS to Identify Activators of Luciferase Translation or Activity in H4-C Neuroglioblastoma Cells. [Related pubchem assays: 1829 (Project Summary), 1814 (Primary HTS)]; assay type: functional
[3] = Luminescence Cell-Based Dose Response HTS to Identify Activators of 5'UTR Stem-Loop Driven Prion Protein mRNA Translation in H4-C Neuroglioblastoma Cells. [Related pubchem assays: 1829 (Project Summary), 1814 (Primary HTS)]; assay type: functional
[4] = Luminescence Cell-Based Dose Response HTS to Identify Inhibitors of Luciferase Translation or Activity in H4-C Neuroglioblastoma Cells. [Related pubchem assays: 1813 (Primary HTS), 1827 (Project Summary)]; assay type: functional
[5] = Luminescence Cell-Based Dose HTS Response to Identify Inhibitors of 5'UTR Stem-Loop Driven Prion Protein mRNA Translation in H4-C Neuroglioblastoma Cells. [Related pubchem assays (depositor defined):AID1814, AID1827]; assay type: functional
[6] = growth suppression of beta-catenin-knockout colon cells, dose response, cell-based, HCT116, human colon tumor (AID 1045); assay type: functional;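 also: HCT116 colon tumor cells with beta catenin knocked out; cells exposed to compound for 60 hours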
[7] = biological target: T1, Microphthalmia-associated transcription factor (Homo sapiens, UniProt O75030); test: TRPM1 promoter luciferase signal decrease, dose response, MITF inhibitor project, cell-based, SK-MEL-5, cherry-picked, set 3 (AID 493073); assay type: functional
T1 sequence (O75030 whole entry): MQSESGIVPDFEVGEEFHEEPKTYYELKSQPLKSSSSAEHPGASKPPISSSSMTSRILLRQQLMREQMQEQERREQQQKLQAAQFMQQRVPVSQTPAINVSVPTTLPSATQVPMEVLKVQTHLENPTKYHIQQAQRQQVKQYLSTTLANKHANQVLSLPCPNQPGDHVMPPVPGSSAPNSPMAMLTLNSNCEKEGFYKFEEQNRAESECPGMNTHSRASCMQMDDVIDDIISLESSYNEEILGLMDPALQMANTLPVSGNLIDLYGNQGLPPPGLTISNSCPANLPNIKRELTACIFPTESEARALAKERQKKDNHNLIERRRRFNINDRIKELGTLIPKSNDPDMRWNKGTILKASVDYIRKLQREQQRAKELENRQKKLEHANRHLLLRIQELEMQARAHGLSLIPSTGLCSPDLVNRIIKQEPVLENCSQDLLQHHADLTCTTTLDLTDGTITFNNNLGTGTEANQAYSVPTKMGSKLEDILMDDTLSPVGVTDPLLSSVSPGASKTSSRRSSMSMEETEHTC

[8] = growth suppression of PTEN-null colon cells, dose response, cell-based, HCT116 PTEN knockout (AID 1047); assay type: functional;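 also: HCT116 colon tumor cells with PTEN knocked out; cells exposed to compound for 60 hours before readout; potency for loss of cell viability measured by luminescence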
Beta-galactosidase = Beta-galactosidase (Escherichia coli, UniProt Q8VNN2); test: beta-galactosidase enzyme inhibitors and activators, dose response, artefact control for CCR6 antagonist project, biochemical, E. coli enzyme, set 3 (AID 504712); assay type: functional
[9] = biological target: G-protein coupled receptor 55 (Homo sapiens, UniProt Q9Y2T6); test: GPR55 antagonists blocking LPI-driven arrestin recruitment, primary screen, imaging, U2OS, beta-arrestin-GFP, LPI agonist (AID 2013); assay type: functional;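 also: antagonist potency measured as reduced agonist-driven arrestin aggregation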
T-cell = test: inhibitors of CD8+ T cell–vesicle binding, dose response, mouse 2C CD8+ T cells, flow cytometry (AID 485284); assay type: functional
[10] = biological target: T2, E3 ubiquitin-protein ligase XIAP (Homo sapiens, UniProt P98170); test: XIAP antagonists, biochemical, IAP family, fluorescence polarization (AID 1018); assay type: functional
[11] = biological target: T2, E3 ubiquitin-protein ligase XIAP; test: Counter Screen using XIAP-Bir3 for Chemical Antagonists of Bir1/2 domains of IAP-family anti-apoptotic proteins. [Related pubchem assays (depositor defined):AID1018, AID1449, AID1514, AID1638, AID1749, AID1750, AID488957, AID488963]
[12] = biological target: T3, Alkaline phosphatase, tissue-nonspecific isozyme (Homo sapiens, UniProt P05186); test: human TNAP enzyme inhibitors, SAR follow-up, biochemical, luminescent, dose response (AID 1056)
T3 sequence (P05186 whole entry): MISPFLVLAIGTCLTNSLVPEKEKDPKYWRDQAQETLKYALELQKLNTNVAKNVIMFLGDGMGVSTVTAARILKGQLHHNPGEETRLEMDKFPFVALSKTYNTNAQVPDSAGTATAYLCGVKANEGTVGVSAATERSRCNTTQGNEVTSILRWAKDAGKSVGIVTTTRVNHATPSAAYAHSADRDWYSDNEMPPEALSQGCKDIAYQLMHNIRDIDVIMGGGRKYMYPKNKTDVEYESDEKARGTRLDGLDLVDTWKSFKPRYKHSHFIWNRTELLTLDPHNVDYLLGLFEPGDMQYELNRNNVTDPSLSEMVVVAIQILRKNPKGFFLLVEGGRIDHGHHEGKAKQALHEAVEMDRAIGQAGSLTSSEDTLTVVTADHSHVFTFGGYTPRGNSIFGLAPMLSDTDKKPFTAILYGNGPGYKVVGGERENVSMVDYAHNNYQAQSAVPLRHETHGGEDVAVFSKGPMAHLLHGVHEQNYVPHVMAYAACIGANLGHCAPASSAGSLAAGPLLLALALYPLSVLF

[13] = biological target: Alkaline phosphatase, placental type (Homo sapiens, UniProt P05187); test: PLAP enzyme inhibitors, confirmation, biochemical, luminescence (AID 1512); assay type: functional
Chain of Alkaline phosphatase, placental type (P05187 whole entry): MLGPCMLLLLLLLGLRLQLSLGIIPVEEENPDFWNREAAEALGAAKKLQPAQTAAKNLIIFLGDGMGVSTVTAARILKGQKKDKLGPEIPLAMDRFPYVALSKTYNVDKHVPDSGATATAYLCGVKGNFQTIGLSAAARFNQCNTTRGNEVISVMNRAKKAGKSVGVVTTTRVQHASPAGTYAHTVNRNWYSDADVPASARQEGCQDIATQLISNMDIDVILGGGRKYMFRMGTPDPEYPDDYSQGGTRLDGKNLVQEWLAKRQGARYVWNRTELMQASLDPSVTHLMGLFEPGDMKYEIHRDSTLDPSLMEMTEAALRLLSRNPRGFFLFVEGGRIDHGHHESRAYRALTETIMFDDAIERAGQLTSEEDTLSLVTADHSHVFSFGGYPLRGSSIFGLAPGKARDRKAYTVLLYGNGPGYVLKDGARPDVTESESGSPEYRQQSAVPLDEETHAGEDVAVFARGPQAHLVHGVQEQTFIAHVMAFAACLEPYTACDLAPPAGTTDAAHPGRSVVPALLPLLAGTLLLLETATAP

T2 sequence (P98170 whole entry): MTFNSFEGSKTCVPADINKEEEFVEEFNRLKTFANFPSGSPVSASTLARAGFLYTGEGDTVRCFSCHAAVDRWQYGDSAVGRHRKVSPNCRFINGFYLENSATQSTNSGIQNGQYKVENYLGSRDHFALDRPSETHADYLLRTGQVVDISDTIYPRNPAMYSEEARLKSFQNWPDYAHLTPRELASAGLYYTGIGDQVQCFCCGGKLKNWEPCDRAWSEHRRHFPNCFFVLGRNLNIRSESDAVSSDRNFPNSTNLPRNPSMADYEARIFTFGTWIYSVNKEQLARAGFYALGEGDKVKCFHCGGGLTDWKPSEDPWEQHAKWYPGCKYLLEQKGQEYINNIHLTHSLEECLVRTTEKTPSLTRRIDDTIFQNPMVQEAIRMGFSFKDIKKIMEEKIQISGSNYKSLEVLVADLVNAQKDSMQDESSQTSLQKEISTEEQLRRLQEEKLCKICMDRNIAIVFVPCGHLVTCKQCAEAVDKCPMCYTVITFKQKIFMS
Chain of G-protein coupled receptor 55 (Q9Y2T6 whole entry): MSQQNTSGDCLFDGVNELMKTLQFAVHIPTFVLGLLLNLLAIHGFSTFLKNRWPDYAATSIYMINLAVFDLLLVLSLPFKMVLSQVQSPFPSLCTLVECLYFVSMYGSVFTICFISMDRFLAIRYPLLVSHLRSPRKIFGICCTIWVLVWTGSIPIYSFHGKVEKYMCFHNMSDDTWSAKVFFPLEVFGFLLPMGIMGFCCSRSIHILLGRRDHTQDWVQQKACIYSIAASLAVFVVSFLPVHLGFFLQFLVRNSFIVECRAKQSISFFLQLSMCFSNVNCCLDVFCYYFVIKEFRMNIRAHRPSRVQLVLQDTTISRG
Chain of Beta-galactosidase (Q8VNN2 whole entry): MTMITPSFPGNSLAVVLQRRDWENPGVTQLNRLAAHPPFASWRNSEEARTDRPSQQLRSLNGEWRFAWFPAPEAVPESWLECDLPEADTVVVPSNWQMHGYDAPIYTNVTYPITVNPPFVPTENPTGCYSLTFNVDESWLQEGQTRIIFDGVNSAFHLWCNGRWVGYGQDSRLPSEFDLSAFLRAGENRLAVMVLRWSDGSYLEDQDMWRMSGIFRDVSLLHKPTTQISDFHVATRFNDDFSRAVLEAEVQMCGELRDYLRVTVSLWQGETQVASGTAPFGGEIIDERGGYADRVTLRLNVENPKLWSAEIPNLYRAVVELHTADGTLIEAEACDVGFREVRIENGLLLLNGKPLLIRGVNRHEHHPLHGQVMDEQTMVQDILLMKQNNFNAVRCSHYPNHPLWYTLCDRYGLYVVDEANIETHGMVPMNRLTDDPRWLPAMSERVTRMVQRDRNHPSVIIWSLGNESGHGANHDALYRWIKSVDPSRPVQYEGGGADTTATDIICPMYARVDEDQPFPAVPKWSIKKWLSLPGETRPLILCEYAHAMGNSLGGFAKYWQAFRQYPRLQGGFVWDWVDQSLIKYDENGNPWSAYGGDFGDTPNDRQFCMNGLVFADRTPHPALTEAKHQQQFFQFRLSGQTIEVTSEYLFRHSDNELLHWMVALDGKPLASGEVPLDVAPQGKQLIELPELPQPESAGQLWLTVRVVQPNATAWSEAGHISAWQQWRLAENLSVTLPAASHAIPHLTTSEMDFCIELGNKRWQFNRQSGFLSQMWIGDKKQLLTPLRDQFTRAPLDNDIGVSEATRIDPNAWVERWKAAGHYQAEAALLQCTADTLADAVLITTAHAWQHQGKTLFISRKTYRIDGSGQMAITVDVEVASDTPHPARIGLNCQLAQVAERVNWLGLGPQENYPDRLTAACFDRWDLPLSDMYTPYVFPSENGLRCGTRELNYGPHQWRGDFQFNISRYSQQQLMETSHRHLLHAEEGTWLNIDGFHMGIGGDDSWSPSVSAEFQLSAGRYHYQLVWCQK

SMILES: CC(=O)O[C@@]12CO[C@@H]1C[C@H](O)[C@@]1(C)C(=O)[C@H](O)C3=C(C)[C@@H](OC(=O)[C@H](O)[C@@H](NC(=O)c4ccccc4)c4ccccc4)C[C@](O)([C@@H](OC(=O)c4ccccc4)[C@H]21)C3(C)C
- EC50 [1]: 2.3 µM (active)
- EC50 [2]: 73.1 µM (inconclusive)
- EC50 [3]: 2.02 µM (inconclusive)
- EC50 [4]: 0.692 µM (active)
- EC50 [5]: 2.4 µM (active)

SMILES: CC1=NOC(=O)/C1=C\c1ccc(-c2cccc(Cl)c2)o1
- EC50 [6]: 11.8 µM (active)
- AC50 [7]: 5.36 µM (active)
- EC50 [8]: 14.5 µM (active)
- IC50 (Beta-galactosidase): > 66.6 µM (inactive)
- IC50 [9]: 8.52 µM (active)

SMILES: COC(=O)c1ccccc1NC(=O)C1CCN(C(=O)c2cc(OC)cc(OC)c2)CC1
- EC50 (T-cell): 0.641 µM (active)

SMILES: COc1ccc2c(C)cc(SCC(=O)Nc3ccc(Cl)cn3)nc2c1
- IC50 [10]: > 100 µM (not active)
- IC50 [11]: > 100 µM (inactive)

SMILES: Cc1cccc(-c2nc3c(c(SCC(=O)c4ccc(O)c(O)c4)n2)CCCC3)c1
- IC50 [12]: 78.5 µM (active)
- IC50 [13]: > 100 µM (inactive)

SMILES: CCOc1ccccc1NC(=O)C1=C(C)NC(=S)NC1c1cccs1 (centres undefined)
- IC50 [10]: > 100 µM (not active)
- IC50 [11]: > 100 µM (inactive)

SMILES: COc1ccc(-n2c(SCC(=O)c3ccc(O)c(O)c3)nnc2-c2ccc(C)cc2)cc1
- IC50 [12]: > 100 µM (inactive)
- IC50 [13]: 5.84 µM (active)
